Key:
Stromelysin-3 = molecular target: T1, Stromelysin-3 (Mus musculus, UniProt Q02853); test: Inhibition of Matrix metalloprotease-11
T1 sequence (Q02853 whole entry): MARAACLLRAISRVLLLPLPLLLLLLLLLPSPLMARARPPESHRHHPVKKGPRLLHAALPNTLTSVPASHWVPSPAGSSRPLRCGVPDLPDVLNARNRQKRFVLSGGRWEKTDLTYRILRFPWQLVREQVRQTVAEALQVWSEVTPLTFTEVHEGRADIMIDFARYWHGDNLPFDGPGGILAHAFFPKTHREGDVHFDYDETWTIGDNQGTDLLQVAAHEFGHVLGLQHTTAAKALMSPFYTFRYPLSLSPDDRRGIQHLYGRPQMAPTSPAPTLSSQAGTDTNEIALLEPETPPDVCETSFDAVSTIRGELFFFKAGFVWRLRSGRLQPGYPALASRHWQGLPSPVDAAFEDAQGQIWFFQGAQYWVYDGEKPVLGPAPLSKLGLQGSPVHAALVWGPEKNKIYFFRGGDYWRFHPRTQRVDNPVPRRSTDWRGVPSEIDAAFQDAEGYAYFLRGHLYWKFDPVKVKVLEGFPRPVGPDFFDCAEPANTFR

Neutrophil collagenase = Neutrophil collagenase (Homo sapiens, UniProt P22894); test: Inhibition of matrix metalloprotease-8
Chain of Neutrophil collagenase (P22894 whole entry): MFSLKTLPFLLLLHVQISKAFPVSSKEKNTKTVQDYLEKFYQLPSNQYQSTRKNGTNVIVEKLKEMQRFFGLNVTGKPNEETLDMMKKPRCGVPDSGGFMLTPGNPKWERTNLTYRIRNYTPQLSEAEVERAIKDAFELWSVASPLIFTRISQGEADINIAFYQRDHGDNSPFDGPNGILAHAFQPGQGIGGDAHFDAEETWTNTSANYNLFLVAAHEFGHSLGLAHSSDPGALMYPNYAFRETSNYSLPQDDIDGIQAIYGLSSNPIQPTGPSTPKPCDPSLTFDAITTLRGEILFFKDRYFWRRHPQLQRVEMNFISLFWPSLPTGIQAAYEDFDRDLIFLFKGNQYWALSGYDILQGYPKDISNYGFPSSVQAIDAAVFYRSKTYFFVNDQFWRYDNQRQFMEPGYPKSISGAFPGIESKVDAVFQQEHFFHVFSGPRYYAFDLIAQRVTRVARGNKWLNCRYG

[1] = molecular target: Matrix metalloproteinase-9 (Homo sapiens, UniProt P14780); test: Inhibition of Matrix metalloprotease-9
Chain of Matrix metalloproteinase-9 (P14780 whole entry): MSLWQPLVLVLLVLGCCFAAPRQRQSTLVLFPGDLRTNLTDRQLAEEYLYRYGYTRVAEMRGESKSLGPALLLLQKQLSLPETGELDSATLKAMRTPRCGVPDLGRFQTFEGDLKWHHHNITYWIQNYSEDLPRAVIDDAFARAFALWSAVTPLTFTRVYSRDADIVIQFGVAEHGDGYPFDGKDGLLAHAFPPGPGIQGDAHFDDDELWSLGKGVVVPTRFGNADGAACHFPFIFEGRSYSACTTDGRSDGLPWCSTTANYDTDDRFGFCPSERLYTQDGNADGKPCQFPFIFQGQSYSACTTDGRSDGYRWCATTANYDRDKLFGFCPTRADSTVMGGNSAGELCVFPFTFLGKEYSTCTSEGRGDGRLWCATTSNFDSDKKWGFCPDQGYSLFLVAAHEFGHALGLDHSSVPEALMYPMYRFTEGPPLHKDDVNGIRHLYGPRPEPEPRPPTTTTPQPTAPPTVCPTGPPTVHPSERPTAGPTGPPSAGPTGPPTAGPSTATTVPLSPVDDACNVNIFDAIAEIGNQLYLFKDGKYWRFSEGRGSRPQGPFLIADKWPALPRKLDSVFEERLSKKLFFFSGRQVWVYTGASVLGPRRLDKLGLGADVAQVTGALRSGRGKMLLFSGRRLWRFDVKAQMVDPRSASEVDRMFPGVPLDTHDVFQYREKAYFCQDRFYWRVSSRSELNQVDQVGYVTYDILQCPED

[2] = molecular target: Matrix metalloproteinase-14 (Homo sapiens, UniProt P50281); test: Inhibition of Matrix metalloprotease-14
Collagenase 3 = Collagenase 3 (Homo sapiens, UniProt P45452); test: Inhibition of matrix metalloprotease-13
[3] = molecular target: 72 kDa type IV collagenase (Homo sapiens, UniProt P08253); test: Inhibition of Matrix metalloprotease-2
Chain of 72 kDa type IV collagenase (P08253 whole entry): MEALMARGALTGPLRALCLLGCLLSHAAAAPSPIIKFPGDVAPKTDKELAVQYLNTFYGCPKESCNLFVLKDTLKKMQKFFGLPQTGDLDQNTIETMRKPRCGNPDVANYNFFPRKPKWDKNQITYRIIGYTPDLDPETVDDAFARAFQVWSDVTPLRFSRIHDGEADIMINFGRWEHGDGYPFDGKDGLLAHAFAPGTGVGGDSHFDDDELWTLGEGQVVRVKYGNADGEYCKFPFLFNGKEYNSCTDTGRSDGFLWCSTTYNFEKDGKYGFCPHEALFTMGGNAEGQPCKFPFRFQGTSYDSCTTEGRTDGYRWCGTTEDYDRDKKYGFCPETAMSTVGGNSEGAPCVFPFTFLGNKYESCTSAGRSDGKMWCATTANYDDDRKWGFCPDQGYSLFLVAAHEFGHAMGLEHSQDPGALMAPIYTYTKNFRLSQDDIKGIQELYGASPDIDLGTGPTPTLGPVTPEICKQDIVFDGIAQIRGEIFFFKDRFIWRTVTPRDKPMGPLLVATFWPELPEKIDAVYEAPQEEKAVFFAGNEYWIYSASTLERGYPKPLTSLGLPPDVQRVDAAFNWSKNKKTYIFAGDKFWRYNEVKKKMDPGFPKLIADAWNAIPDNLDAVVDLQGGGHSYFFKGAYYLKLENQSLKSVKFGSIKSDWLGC

Interstitial collagenase = molecular target: T2, Interstitial collagenase (Homo sapiens, UniProt P03956); test: Inhibition of matrix metalloprotease-1
T2 sequence (P03956 whole entry): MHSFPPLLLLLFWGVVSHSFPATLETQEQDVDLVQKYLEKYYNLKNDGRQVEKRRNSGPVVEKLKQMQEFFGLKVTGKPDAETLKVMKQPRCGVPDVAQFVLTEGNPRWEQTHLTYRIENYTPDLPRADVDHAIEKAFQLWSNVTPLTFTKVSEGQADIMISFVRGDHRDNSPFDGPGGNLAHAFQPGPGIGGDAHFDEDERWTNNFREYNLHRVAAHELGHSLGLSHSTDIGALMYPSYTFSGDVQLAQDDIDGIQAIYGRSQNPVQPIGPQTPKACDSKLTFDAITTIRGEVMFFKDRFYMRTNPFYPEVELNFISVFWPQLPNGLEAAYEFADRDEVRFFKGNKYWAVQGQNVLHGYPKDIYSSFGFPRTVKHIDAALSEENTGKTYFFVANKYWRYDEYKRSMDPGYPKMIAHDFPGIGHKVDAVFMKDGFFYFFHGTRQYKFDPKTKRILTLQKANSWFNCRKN

Matrilysin = molecular target: T3, Matrilysin (Homo sapiens, UniProt P09237); test: Inhibition of Matrix metalloprotease-7
T3 sequence (P09237 whole entry): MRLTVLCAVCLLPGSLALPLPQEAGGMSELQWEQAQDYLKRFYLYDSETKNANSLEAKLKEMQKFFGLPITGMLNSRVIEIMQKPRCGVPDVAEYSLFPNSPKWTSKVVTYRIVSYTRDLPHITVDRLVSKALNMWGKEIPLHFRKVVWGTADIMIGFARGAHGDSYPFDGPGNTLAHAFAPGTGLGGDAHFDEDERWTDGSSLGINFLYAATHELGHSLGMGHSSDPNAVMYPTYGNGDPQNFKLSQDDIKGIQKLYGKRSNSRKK

| Structure (SMILES) | Ki (Stromelysin-3) | Ki (Neutrophil collagenase) | Ki [1] | Ki [2] | Ki (Collagenase 3) | Ki [3] | Ki (Interstitial collagenase) | Ki (Matrilysin) |
| --- | --- | --- | --- | --- | --- | --- | --- | --- |
| COc1ccccc1SCC(CP(=O)(O)C(Cc1ccccc1)NC(=O)OCc1ccccc1)C(=O)NC(Cc1c[nH]c2ccccc12)C(N)=O (stereo not given) | 0.23 µM | 38.9 µM | 35.6 µM | 160 µM | 15.7 µM | 30 µM |  |  |
| NC(=O)C(Cc1c[nH]c2ccccc12)NC(=O)C(CSc1ccccc1Br)CP(=O)(O)C(Cc1ccccc1)NC(=O)OCc1ccccc1 (stereo not given) | 0.11 µM | 18.4 µM | 3.91 µM | 30.1 µM | 4.7 µM | 4.65 µM |  |  |
| NC(=O)C(Cc1c[nH]c2ccccc12)NC(=O)C(CCCc1ccccc1)CP(=O)(O)C(Cc1ccccc1)NC(=O)OCc1ccccc1 (stereo not given) |  |  |  |  |  |  | > 2 µM | > 2 µM |
| NC(=O)C(Cc1c[nH]c2ccccc12)NC(=O)C(CSc1ccccc1OC(F)(F)F)CP(=O)(O)C(Cc1ccccc1)NC(=O)OCc1ccccc1 (stereo not given) | 0.41 µM | 200 µM | 148 µM | 30 µM | 200 µM | 200 µM |  |  |

Reference: ChEMBL document CHEMBL1148378 (J Med Chem, 2004)
